Earlier results in patent US20180193283A1, “TRANSDERMAL THERAPEUTIC SYSTEM CONTAINING ASENAPINE” (LTS LOHMANN Therapie-Systeme AG, priority 2016, published 2018).
Like-named read-outs stand apart in the source and are kept apart here.

Assays:
[1] = very common side effects

bioavailability (if ingested): < 2% | terminal disposition half-life (sublingual administration, therapeutic doses): ≥ 24 h | bioavailability (when taken sublingually): 35%
SMILES: CN1C[C@H]2c3ccccc3Oc3ccc(Cl)cc3[C@@H]2C1 (relative stereo) [asenapine, (3aRS,12bRS)-rel-5-chloro-2,3,3a,12b-tetrahydro-2-methyl-1H-dibenz[2,3:6,7]oxepino[4,5-c]pyrrole]
Somnolence and anxiety, frequency [1]: ≥ 10 % of the patients
